Our source for the melting point and IC50 values is patent US6432959B1, “Inhibitors of farnesyl-protein transferase” (Schering Corporation, priority 1998, dated 2002).

Series [1] has as its target T1, partially purified rat brain farnesyl protein transferase (FPT) (Rattus norvegicus, UniProt Q02293+Q04631).
T1 construct: partially purified rat brain farnesyl protein transferase (FPT); from tissue; host or cells: rat brain
The series is described as follows: FPT IC50, in vitro enzyme assay (inhibition of Ras-CVLS farnesylation). The class given is biochemical. As to conditions: inhibition of Ras-CVLS farnesylation by partially purified rat brain FPT; value is a range stated for a group of compounds. The protocol:
1. In vitro enzyme assays: FPT IC50 (inhibition of farnesyl protein transferase, in vitro enzyme assay) are determined by the methods disclosed in WO/10515 or WO95/10516.

Where “and” joins values, the source holds several entries; their conditions need not be identical. Identical values can stand only once.

On to `CC(C)(C)OC(=O)N1CCN(C(=O)NC2CCCCC2)[C@@H](C(=O)NCCc2cncn2Cc2ccc(F)cc2)C1` [Example 2], for which the melting point was 72 °C (dec.).
`N#Cc1ccc(Cn2cncc2CCNC(=O)[C@H]2CN(Cc3nccs3)CCN2C(=O)NC2CCCCC2)cc1` [Example 8] showed an IC50 in series [1] of 0.18 to 21 nM.
Turning to `CC(C)(C)CCN1CCN(C(=O)NC2CCCCC2)[C@@H](C(=O)NCCc2cncn2Cc2ccc(C#N)cc2)C1` [Example 9], the IC50 in series [1] lay within 0.18 to 21 nM.
As to `N#Cc1ccc(CN2CCN(C(=O)NC3CCCCC3)[C@@H](C(=O)NCCc3cncn3Cc3ccc(C#N)cc3)C2)cc1` [Example 10], in series [1], the IC50 lay within 0.18 to 21 nM.
The same measure, in the same setting: the result for `N#Cc1ccc(Cn2cncc2CCNC(=O)[C@H]2CN(Cc3ccccc3C#N)CCN2C(=O)NC2CCCCC2)cc1` [Example 11] reads 0.18 to 21 nM; that for `COc1ccc(CN2CCN(C(=O)NC3CCCCC3)[C@@H](C(=O)NCCc3cncn3Cc3ccc(C#N)cc3)C2)cc1` [Example 12], 0.18 to 21 nM.
`N#Cc1ccc(Cn2cncc2CCNC(=O)[C@H]2CN(CC3CCCCC3)CCN2C(=O)NC2CCCCC2)cc1` [Example 13] displayed an IC50 in series [1] of 0.18 to 21 nM.
Regarding `N#Cc1ccc(Cn2cncc2CCNC(=O)[C@H]2CN(Cc3ccc(F)cc3)CCN2C(=O)NC2CCCCC2)cc1` [Example 14], in series [1], the IC50 was 0.18 to 21 nM.
Turning to `N#Cc1ccc(Cn2cncc2CCNC(=O)[C@H]2CN(Cc3ccc(C(F)(F)F)cc3)CCN2C(=O)NC2CCCCC2)cc1` [Example 15], the IC50 in series [1] was 0.18 to 21 nM.
In series [1], `N#Cc1ccc(Cn2cncc2CCNC(=O)[C@H]2CN(Cc3ccc(Cl)cc3)CCN2C(=O)NC2CCCCC2)cc1` [Example 16] returned an IC50 of 0.18 to 21 nM.
Consider `N#Cc1ccc(Cn2cncc2CCNC(=O)[C@H]2CN(Cc3ccc(Br)cc3)CCN2C(=O)NC2CCCCC2)cc1` [Example 17], for which the IC50 in series [1] lay within 0.18 to 21 nM.
`CC(=O)Nc1ccc(CN2CCN(C(=O)NC3CCCCC3)[C@@H](C(=O)NCCc3cncn3Cc3ccc(C#N)cc3)C2)cc1` [Example 20] showed an IC50 in series [1] of 0.18 to 21 nM.
In series [1], `N#Cc1ccc(Cn2cncc2CCNC(=O)[C@H]2CN(Cc3cccc4ccccc34)CCN2C(=O)NC2CCCCC2)cc1` [Example 21] gave an IC50 of 0.18 to 21 nM.
In turn, `Cc1ccc(CN2CCN(C(=O)NC3CCCCC3)[C@@H](C(=O)NCCc3cncn3Cc3ccc(C#N)cc3)C2)cc1` [Example 22] yielded an IC50 in series [1] of 0.18 to 21 nM.
In turn, `N#Cc1ccc(Cn2cncc2CCNC(=O)[C@H]2CN(Cc3ccc(O)cc3)CCN2C(=O)NC2CCCCC2)cc1` [Example 23] returned an IC50 in series [1] of 0.18 to 21 nM.
Turning to `N#Cc1ccc(Cn2cncc2CCNC(=O)[C@H]2CN(Cc3ccc(Cl)cc3Cl)CCN2C(=O)NC2CCCCC2)cc1` [Example 24], the IC50 in series [1] is 0.18 to 21 nM.
Compound `N#Cc1ccc(Cn2cncc2CCNC(=O)[C@H]2CN(Cc3cccc(Cl)c3)CCN2C(=O)NC2CCCCC2)cc1` [Example 25] gave a half-inhibitory concentration (IC50) in series [1] of 0.18 to 21 nM.
On the same count and under the same terms, the same measure for `COc1cccc(CN2CCN(C(=O)NC3CCCCC3)[C@@H](C(=O)NCCc3cncn3Cc3ccc(C#N)cc3)C2)c1` [Example 26]: 0.18 to 21 nM.
Still for that read-out and setting: the result for `COc1ccccc1CN1CCN(C(=O)NC2CCCCC2)[C@@H](C(=O)NCCc2cncn2Cc2ccc(C#N)cc2)C1` [Example 27] reads 0.18 to 21 nM.
As for `O=C(NCCc1cncn1Cc1ccc(Cl)cc1)[C@H]1CN(Cc2ccccc2)CCN1C(=O)NC1CCCCC1` [Example 28C, N4-phenylmethyl-N2-[2-[1-[(4-chlorophenyl)methyl]-1H-imidazol-5-yl]ethyl]-N1-cyclohexyl-1,2(R)-piperazinedicarboxamide], the melting point amounted to 116.2 °C. Further, the IC50 in series [1] is 0.18 to 21 nM.
As for `O=C(NCCc1cncn1CCc1ccccc1)[C@H]1CN(Cc2ccccc2)CCN1C(=O)NC1CCCCC1` [Example 28D, N4-phenylmethyl-N2-[2-[1-(phenylethyl)-1H-imidazol-5-yl]ethyl]-N1-cyclohexyl-1,2(R)-piperazinedicarboxamide], the melting point worked out at 64.4 °C.
On to `CCC(=O)N1CCN(Cc2ccccc2)C[C@@H]1C(=O)NCCc1cncn1Cc1ccc(C#N)cc1` [Example 28E, N-[2-[1-[(4-cyanophenyl)methyl]-1H-imidazol-5-yl]ethyl]-1-(1-oxopropyl)-4-phenyl(methyl)-2(R)-piperazinedicarboxamide], for which the IC50 in series [1] is 0.18 to 21 nM.
As to `CCCC(=O)N1CCN(Cc2ccccc2)C[C@@H]1C(=O)NCCc1cncn1Cc1ccc(C#N)cc1` [Example 28F, N-[2-[1-[(4-cyanophenyl)methyl]-1H-imidazol-5-yl]ethyl]-1-(1-oxobutyl)-4-phenyl(methyl)-2(R)-piperazinedicarboxamide], the IC50 in series [1] was in the range of 0.18 to 21 nM.
On to `N#Cc1ccc(Cn2cncc2CCNC(=O)[C@H]2CN(Cc3ccccc3)CCN2C(=O)c2ccccc2)cc1` [Example 28G, 1-benzoyl-N-[2-[1-[(4-cyanophenyl)methyl]-1H-imidazol-5-yl]ethyl]-4-phenylmethyl-2(R)-piperazinedicarboxamide], for which the melting point was 115.3 to 170.3 °C. The IC50 in series [1] was in the range of 0.18 to 21 nM.
In turn, `N#Cc1ccc(Cn2cncc2CCNC(=O)[C@H]2CN(Cc3ccccc3)CCN2C(=O)Cc2ccccc2)cc1` [Example 28I, N-[2-[1-[(4-cyanophenyl)methyl]-1H-imidazol-5-yl]ethyl]-1-phenylacetyl-4-(phenylmethyl)-2(R)-piperazinedicarboxamide] had a melting point of 85.6 to 96.7 °C. This compound also gave an IC50 in series [1] of 0.18 to 21 nM.
With `CCS(=O)(=O)N1CCN(Cc2ccccc2)C[C@@H]1C(=O)NCCc1cncn1Cc1ccc(C#N)cc1` [Example 28K, N-[2-[1-[(4-cyanophenyl)methyl]-1H-imidazol-5-yl]ethyl]-1-(ethylsulfonyl)-4-(phenylmethyl)-2(R)-piperazinecarboxamide], the melting point lay in the range of 97.3 to 150.2 °C.
The compound `N#Cc1ccc(Cn2cncc2CCNC(=O)[C@H]2CN(Cc3ccccc3)CCN2S(=O)(=O)Cc2ccccc2)cc1` [Example 28M, N-[2-[1-[(4-cyanophenyl)methyl]-1H-imidazol-5-yl]ethyl]-1-[(phenylmethyl)sulfonyl]-4-(phenylmethyl)-2(R)-piperazinecarboxamide] had a half-inhibitory concentration (IC50) in series [1] of 0.18 to 21 nM.
`CC(C)(C)NC(=O)N1CCN(Cc2ccccc2)C[C@@H]1C(=O)NCCc1cncn1Cc1ccc(C#N)cc1` [Example 28O, N2-[2-[1-[(4-cyanophenyl)methyl]-1H-imidazol-5-yl]ethyl]-N1-(1,1-dimethylethyl)-4-(phenylmethyl)-1,2(R)-piperazinedicarboxamide] yielded a melting point of 97.8 °C. Besides, the IC50 in series [1] is 0.18 to 21 nM and 0.18 to 1.5 nM.
In turn, `N#Cc1ccc(Cn2cncc2CCNC(=O)[C@H]2CN(Cc3ccccc3)CCN2C(=O)Cc2cc[n+]([O-])cc2)cc1` [Example 28P, N-[2-[1-[(4-cyanophenyl)methyl]-1H-imidazol-5-yl]ethyl]-4-(phenylmethyl)-1-(4-pyridinylacetyl)-2(R)-piperazinecarboxamide N1-oxide] had an IC50 in series [1] of 0.18 to 21 nM.
`N#Cc1ccc(Cn2cncc2CCNC(=O)[C@H]2CN(Cc3ccccc3)CCN2C(=O)CC2CCN(C(N)=O)CC2)cc1` [Example 28Q, 1-[[1-(aminocarbonyl)-4-piperidinyl]acetyl]-N-[2-[1-[(4-cyanophenyl)methyl]-1H-imidazol-5-yl]ethyl]-4-(phenylmethyl)-2(R)-piperazinecarboxamide] had a melting point of 118.5 °C. Moreover, the IC50 in series [1] fell in the range of 0.18 to 21 nM.
Consider `CC(C)(C)OC(=O)N1CCN(C(=O)OCc2ccccc2)[C@@H](C(=O)NCCCn2ccnc2C(N)=O)C1` [Example 28Z], for which the melting point lay within 71 to 75 °C.
For the compound `N#Cc1ccc(Cn2cncc2CCNC(=O)[C@H]2CN(Cc3ccccc3Cl)CCN2C(=O)NC2CCCCC2)cc1` [Example 28], the IC50 in series [1] fell in the range of 0.18 to 21 nM.
The compound `N#Cc1ccc(Cn2cncc2CCNC(=O)C2CN(CCc3ccccc3)CCN2C(=O)NC2CCCCC2)cc1` (stereo not drawn) [Example 29] displayed an IC50 in series [1] of 0.18 to 21 nM.
In series [1], `CS(=O)(=O)N1CCN(CCc2ccccc2)CC1C(=O)NCCc1cncn1Cc1ccc(C#N)cc1` (stereo not drawn) [Example 31] gave an IC50 of 0.18 to 21 nM.
On the same count and under the same terms, the result for `N#Cc1ccc(Cn2cncc2CCNC(=O)C2CN(CCC3CCCCC3)CCN2C(=O)NC2CCCCC2)cc1` (stereo not drawn) [Example 32] reads 0.18 to 21 nM; that for `CCCCCN1CCN(S(C)(=O)=O)C(C(=O)NCCc2cncn2Cc2ccc(C#N)cc2)C1` (stereo not drawn) [Example 34], 0.18 to 21 nM; that for `O=C(NCCc1cncn1Cc1ccc(Cl)c(Cl)c1)C1CN(CCC2CCCCC2)CCN1C(=O)NC1CCCCC1` (stereo not drawn) [Example 36], 0.18 to 21 nM.
For the compound `N#Cc1ccc(Cn2cncc2CCNC(=O)C2CN(C(=O)c3ccncc3)CCN2C(=O)NC2CCCCC2)cc1` (stereo not drawn) [Example 42], the IC50 in series [1] is 0.18 to 21 nM.
Same read-out and setting: the same measure for `CCCCNC(=O)N1CCN(C(=O)NC2CCCCC2)C(C(=O)NCCc2cncn2Cc2ccc(C#N)cc2)C1` (stereo not drawn) [Example 47]: 0.18 to 21 nM; for `O=C(NCCc1cncn1Cc1ccc(C(F)(F)F)cc1)C1CN(CCc2cccc(Cl)c2)CCN1C(=O)NC1CCCCC1` (stereo not drawn) [Example 53]: 0.18 to 21 nM.
Regarding `N#Cc1ccc(Cn2cncc2CCNC(=O)C2CN(CCc3cccc(Cl)c3)CCN2C(=O)NC2CCCCC2)cc1` (stereo not drawn) [Example 54], the IC50 in series [1] was 0.18 to 21 nM and 0.18 to 1.5 nM.
On to `Cc1ccc(CCN2CCN(C(=O)NC3CCCCC3)C(C(=O)NCCc3cncn3Cc3ccc(C#N)cc3)C2)cc1O` (stereo not drawn) [Example 55], for which the IC50 in series [1] is 0.18 to 21 nM and 0.18 to 1.5 nM.
Take `CC(C)(C)CCN1CCN(C(=O)NC2CCCCC2)C(C(=O)NCCc2cncn2Cc2ccc(Cl)c(Cl)c2)C1` (stereo not drawn) [Example 56]: the IC50 in series [1] was 0.18 to 21 nM.
Regarding `COc1cccc(CN2CCN(C(=O)NC3CCCCC3)C(C(=O)NCCc3cncn3Cc3ccc(Cl)c(Cl)c3)C2)c1` (stereo not drawn) [Example 58], in series [1], the concentration for half-maximal inhibition (IC50) fell in the range of 0.18 to 21 nM.
The same measure, in the same setting: the result for `Cn1cncc1CCNC(=O)C1CN(CCC2CCCCC2)CCN1C(=O)NC1CCCCC1` (stereo not drawn) [Example 61] reads 0.18 to 21 nM; that for `O=C(NCCc1cncn1Cc1ccccc1)[C@H]1CN(CCC2CCCCC2)CCN1C(=O)NC1CCCCC1` [Example 64], 0.18 to 21 nM.

One may read the melting point as the temperature, or range, at which the solid turns liquid. As a reminder, the IC50 is the midpoint of a concentration-inhibition curve. Low readings indicate inhibition by little substance, high ones a need for much substance.
